Source: article PMC6458995, “MAP4K4 Inhibition Promotes Survival of Human Stem Cell-Derived Cardiomyocytes and Reduces Infarct Size In Vivo” (Cell Stem Cell, 2019)
Read-outs that look alike come from different tables or passages of the source.

Assays:
AMPK = test: Dundee kinase panel; assay type: biochemical, human; conditions: 1 μM
Procedure: (§1) Compounds were screened at 1 μM. For key hits, pIC50 values were then determined by HTRF as above. […] Stability in mouse and human liver microsomes was determined by Cyprotex.

PHK = test: Dundee kinase panel; assay type: biochemical, human; conditions: 1 μM
Procedure: as §1

recombinant human MAP4K4 = biological target: T1, recombinant human MAP4K4 (Homo sapiens, UniProt O95819); test: In vitro MAP4K4 kinase activity assay (HTRF Transcreener ADP); assay type: biochemical
T1 construct: Human MAP4K4 kinase domain (aa 1-328); purchased Invitrogen PV3687
Procedure: MAP4K4 kinase activity was monitored using the CisBio HTRF Transcreener ADP assay, a competitive immunoassay with a reproducible Z’ > 0.6. In the detection step, endogenous ADP and d2-labeled ADP compete for binding an anti-ADP monoclonal antibody labeled with Eu^3+ cryptate. […] Assays were run in Greiner low volume plates with a final reaction volume of 10 μl. Percent inhibition was calculated from 100% activity of MAP4K4 (DMSO only) and 0% activity (no enzyme added). Data were either reported as % inhibition at a single dose or as pIC50 values derived from dose response curves (pIC50 = -log[IC50]).

GSK3b = biological target: T2, GSK3b (Homo sapiens, UniProt P49841); test: Dundee kinase panel; assay type: biochemical; conditions: for remaining activity at 1 µM: read-out: residual activity
T2 construct: lines 1-140) and Reaction Biology
Procedure: as §1

ROCK 2 = biological target: T3, ROCK 2 (Homo sapiens, UniProt O75116); test: Dundee kinase panel; assay type: biochemical; conditions: for remaining activity at 1 µM: read-out: residual activity
T3 construct: lines 1-140) and Reaction Biology
Procedure: as §1

MPSK1 = biological target: T4, MPSK1 (Homo sapiens, UniProt O75716); test: Dundee kinase panel; assay type: biochemical; conditions: for remaining activity at 1 µM: read-out: residual activity
T4 construct: lines 1-140) and Reaction Biology
Procedure: as §1

PLK1 = biological target: T5, PLK1 (Homo sapiens, UniProt P53350); test: Dundee kinase panel; assay type: biochemical; conditions: for remaining activity at 1 µM: read-out: residual activity
T5 construct: lines 1-140) and Reaction Biology
Procedure: as §1

PINK = test: Dundee kinase panel; assay type: biochemical, human; conditions: 1 μM
Procedure: (§2) Kinase selectivity profiling was performed by the International Centre for Kinase Profiling, MRC Protein Phosphorylation and Ubiquitylation Unit (141 kinases; Premier Screen, http://www.kinase-screen.mrc.ac.uk), using a [γ-^33P]ATP filter binding assay ([Bain et al., 2007]). Compounds were screened at 1 μM. For key hits, pIC50 values were then determined by HTRF as above. More complete kinome profiling was performed by Reaction Biology (376 kinases). Stability in mouse and human liver microsomes was determined by Cyprotex.

MAP4K5 = biological target: T6, MAP4K5 (Homo sapiens, UniProt Q9Y4K4); test: Dundee kinase panel; assay type: biochemical; conditions: for remaining activity at 1 µM: read-out: residual activity
T6 construct: lines 1-140) and Reaction Biology
Procedure: as §2

ULK2 = biological target: T7, ULK2 (Homo sapiens, UniProt Q8IYT8); test: Dundee kinase panel; assay type: biochemical; conditions: for remaining activity at 1 µM: read-out: residual activity
T7 construct: lines 1-140) and Reaction Biology
T7 sequence (Q8IYT8 1-1036): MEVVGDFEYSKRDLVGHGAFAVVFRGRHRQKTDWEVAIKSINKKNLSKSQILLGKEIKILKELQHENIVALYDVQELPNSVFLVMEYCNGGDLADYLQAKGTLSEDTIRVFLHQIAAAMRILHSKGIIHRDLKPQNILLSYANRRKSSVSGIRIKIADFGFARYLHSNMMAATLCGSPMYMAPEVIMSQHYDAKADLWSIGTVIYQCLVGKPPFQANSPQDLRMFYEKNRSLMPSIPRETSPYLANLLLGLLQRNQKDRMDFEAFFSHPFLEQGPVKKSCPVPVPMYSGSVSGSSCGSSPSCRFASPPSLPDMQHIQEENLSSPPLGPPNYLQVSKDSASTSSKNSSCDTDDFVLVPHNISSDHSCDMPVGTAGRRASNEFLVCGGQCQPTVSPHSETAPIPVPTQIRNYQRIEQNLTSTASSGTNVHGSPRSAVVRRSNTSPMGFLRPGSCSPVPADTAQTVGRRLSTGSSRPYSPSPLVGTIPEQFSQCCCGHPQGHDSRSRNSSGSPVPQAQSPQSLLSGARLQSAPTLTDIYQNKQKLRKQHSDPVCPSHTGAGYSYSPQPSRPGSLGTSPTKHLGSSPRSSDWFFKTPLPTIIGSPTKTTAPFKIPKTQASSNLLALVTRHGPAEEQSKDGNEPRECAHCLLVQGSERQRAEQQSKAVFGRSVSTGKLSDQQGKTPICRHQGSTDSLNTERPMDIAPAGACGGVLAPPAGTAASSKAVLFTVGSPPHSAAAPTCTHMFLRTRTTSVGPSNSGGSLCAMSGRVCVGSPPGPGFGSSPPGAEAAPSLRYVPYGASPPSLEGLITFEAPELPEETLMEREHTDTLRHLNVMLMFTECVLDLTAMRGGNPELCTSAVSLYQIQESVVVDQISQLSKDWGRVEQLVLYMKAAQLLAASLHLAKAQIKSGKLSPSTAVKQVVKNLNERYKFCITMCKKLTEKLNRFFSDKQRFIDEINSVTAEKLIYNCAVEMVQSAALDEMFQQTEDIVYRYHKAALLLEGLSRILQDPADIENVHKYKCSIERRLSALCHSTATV
Procedure: as §2

MINK1 = biological target: T8, MINK1 (Homo sapiens, UniProt Q8N4C8); test: Dundee kinase panel; assay type: biochemical; conditions: for remaining activity at 1 µM: read-out: residual activity
T8 construct: lines 1-140) and Reaction Biology
Procedure: as §2

Src = biological target: T9, Src (Homo sapiens, UniProt P12931); test: Dundee kinase panel; assay type: biochemical; conditions: for remaining activity at 1 µM: read-out: residual activity
T9 construct: lines 1-140) and Reaction Biology
Procedure: as §2

ERK5 = biological target: T10, ERK5 (Homo sapiens, UniProt Q13164); test: Dundee kinase panel; assay type: biochemical; conditions: for remaining activity at 1 µM: read-out: residual activity
T10 construct: lines 1-140) and Reaction Biology
Procedure: as §2

MARK1 = biological target: T11, MARK1 (Homo sapiens, UniProt Q9P0L2); test: Dundee kinase panel; assay type: biochemical; conditions: for remaining activity at 1 µM: read-out: residual activity
T11 construct: lines 1-140) and Reaction Biology
Procedure: as §2

DYRK1A = biological target: T12, DYRK1A (Homo sapiens, UniProt Q13627); test: Dundee kinase panel; assay type: biochemical; conditions: for remaining activity at 1 µM: read-out: residual activity
T12 construct: lines 1-140) and Reaction Biology
Procedure: as §2

TGFBR1 = biological target: T13, TGFBR1 (Homo sapiens, UniProt P36897); test: Dundee kinase panel; assay type: biochemical; conditions: for remaining activity at 1 µM: read-out: residual activity
T13 construct: lines 1-140) and Reaction Biology
T13 sequence (P36897 34-503): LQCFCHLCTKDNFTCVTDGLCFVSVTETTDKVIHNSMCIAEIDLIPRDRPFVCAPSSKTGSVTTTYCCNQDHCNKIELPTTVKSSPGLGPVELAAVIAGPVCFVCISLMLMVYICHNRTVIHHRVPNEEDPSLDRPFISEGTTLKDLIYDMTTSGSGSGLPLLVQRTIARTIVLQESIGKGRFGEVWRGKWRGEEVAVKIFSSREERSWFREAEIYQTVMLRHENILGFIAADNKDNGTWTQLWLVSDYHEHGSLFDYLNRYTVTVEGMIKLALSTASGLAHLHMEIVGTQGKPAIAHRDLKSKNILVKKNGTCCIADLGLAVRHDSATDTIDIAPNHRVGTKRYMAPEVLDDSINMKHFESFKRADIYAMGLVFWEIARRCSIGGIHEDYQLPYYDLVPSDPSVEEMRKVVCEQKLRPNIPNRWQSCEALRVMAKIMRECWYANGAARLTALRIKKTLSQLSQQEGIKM
Procedure: as §2

LCK = biological target: T14, LCK (Homo sapiens, UniProt P06239); test: Dundee kinase panel; assay type: biochemical; conditions: for remaining activity at 1 µM: read-out: residual activity
T14 construct: lines 1-140) and Reaction Biology
Procedure: as §1

[1] = dose-response, Figure 2C, read-out: IC50 against recombinant human MAP4K4
[2] = MAP4K4, HTRF Transcreener ADP assay, read-out: pIC50 (converted)

T3 sequence (O75116 whole entry): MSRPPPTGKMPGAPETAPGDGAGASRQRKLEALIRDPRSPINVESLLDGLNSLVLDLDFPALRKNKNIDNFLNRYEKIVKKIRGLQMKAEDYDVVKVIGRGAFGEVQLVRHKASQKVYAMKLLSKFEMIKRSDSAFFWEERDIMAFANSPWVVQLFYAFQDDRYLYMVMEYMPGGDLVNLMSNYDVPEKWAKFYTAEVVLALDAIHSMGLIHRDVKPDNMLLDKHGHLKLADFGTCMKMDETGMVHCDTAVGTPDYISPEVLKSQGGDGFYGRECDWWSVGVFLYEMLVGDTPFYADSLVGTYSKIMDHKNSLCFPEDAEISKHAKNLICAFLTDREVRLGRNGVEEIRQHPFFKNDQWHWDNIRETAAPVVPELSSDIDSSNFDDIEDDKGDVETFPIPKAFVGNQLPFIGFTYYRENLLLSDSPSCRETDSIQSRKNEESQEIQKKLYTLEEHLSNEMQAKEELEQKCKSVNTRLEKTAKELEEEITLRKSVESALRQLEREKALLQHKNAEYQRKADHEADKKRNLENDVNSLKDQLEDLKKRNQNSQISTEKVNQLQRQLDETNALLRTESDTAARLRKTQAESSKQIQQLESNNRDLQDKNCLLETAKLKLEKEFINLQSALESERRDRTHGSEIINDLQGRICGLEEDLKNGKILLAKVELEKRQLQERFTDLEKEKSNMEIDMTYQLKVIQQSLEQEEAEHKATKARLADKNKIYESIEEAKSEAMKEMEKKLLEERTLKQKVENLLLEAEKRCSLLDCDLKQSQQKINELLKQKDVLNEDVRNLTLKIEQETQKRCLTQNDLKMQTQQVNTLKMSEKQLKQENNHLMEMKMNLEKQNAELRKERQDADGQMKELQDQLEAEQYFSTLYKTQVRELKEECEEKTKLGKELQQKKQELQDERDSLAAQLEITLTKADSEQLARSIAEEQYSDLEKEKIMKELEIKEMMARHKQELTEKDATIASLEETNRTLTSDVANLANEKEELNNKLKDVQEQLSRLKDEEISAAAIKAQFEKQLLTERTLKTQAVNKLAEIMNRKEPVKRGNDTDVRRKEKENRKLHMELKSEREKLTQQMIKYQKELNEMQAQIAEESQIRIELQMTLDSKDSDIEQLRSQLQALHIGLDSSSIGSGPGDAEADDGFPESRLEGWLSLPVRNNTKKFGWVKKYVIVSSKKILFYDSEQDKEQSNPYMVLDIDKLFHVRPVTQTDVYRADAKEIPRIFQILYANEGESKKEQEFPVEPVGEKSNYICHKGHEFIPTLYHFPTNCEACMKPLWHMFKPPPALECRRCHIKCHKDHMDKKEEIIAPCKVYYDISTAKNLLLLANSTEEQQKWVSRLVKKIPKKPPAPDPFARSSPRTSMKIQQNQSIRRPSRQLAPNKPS
T11 sequence (Q9P0L2 whole entry): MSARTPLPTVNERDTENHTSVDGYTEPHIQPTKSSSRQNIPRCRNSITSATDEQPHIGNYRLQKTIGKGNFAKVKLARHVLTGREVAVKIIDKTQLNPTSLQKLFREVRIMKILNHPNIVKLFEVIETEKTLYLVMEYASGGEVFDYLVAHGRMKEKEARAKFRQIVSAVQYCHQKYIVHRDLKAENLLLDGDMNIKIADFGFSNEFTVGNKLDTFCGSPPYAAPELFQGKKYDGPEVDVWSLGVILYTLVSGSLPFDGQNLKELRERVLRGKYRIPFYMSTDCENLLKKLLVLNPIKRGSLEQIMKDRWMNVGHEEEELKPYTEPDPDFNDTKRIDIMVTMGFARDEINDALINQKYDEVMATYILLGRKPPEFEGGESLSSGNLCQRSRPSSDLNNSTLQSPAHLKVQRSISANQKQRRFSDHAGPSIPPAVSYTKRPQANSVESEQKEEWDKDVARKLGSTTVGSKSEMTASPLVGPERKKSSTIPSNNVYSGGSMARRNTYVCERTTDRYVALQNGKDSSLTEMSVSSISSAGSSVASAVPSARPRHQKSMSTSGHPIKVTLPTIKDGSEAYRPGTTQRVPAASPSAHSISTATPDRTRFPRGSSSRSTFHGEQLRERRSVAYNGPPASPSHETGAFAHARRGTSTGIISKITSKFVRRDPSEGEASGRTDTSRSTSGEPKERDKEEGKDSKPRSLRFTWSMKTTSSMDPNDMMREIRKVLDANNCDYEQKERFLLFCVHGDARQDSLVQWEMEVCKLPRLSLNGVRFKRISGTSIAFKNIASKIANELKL
T10 sequence (Q13164 whole entry): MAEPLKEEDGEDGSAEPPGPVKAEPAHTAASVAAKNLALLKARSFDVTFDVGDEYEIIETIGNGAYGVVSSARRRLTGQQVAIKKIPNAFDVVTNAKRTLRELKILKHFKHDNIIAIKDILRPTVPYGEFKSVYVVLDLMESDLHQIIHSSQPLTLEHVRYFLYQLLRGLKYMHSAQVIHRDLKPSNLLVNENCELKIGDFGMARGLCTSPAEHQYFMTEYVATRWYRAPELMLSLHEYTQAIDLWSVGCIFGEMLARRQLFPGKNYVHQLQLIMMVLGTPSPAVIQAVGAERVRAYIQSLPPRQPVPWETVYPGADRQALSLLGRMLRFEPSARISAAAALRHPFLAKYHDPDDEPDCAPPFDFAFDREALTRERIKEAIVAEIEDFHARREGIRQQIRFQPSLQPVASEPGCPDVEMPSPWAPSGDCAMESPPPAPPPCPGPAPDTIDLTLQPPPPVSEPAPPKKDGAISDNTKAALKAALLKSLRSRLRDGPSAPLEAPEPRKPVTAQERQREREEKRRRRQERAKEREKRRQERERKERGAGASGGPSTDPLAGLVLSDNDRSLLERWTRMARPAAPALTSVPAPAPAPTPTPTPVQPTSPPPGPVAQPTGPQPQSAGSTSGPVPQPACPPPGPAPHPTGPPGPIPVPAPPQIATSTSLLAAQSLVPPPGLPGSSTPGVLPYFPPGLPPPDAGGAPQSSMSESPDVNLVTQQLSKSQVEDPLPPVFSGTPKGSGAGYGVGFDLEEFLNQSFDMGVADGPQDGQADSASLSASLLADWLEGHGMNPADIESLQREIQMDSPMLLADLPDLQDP
T14 sequence (P06239 whole entry): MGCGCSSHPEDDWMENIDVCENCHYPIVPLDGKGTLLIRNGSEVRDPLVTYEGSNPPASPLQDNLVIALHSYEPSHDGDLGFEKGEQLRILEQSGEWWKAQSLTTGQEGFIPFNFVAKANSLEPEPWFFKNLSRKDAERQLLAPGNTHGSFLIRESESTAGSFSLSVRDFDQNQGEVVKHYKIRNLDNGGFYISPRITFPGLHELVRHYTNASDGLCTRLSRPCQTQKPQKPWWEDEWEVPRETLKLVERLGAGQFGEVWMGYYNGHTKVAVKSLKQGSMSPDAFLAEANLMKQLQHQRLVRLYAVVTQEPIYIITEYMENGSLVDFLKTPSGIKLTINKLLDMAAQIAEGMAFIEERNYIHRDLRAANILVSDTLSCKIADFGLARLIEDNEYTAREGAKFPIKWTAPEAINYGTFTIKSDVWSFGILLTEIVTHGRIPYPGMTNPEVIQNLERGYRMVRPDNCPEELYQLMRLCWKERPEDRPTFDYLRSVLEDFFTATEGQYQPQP
T1 sequence (O95819 1-328): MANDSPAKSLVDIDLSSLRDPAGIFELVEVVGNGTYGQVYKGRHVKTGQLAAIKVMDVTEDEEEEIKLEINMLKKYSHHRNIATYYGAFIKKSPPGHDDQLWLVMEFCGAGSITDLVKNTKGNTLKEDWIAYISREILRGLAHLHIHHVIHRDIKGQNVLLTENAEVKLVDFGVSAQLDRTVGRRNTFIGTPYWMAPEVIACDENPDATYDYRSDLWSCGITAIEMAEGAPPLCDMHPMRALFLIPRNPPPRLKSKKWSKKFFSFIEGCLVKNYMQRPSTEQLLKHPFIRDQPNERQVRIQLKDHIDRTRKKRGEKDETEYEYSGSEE
T2 sequence (P49841 whole entry): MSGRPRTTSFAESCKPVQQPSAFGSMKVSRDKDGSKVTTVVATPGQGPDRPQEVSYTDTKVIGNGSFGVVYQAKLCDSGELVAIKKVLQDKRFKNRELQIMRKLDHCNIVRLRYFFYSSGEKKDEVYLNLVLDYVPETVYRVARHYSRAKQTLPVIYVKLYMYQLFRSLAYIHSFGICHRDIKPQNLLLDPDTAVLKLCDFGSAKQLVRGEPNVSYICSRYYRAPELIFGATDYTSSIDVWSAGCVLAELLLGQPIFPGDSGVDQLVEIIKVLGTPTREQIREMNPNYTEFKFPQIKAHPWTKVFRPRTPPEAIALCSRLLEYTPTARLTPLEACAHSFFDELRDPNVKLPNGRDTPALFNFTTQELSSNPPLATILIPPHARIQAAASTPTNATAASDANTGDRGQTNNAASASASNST
T5 sequence (P53350 whole entry): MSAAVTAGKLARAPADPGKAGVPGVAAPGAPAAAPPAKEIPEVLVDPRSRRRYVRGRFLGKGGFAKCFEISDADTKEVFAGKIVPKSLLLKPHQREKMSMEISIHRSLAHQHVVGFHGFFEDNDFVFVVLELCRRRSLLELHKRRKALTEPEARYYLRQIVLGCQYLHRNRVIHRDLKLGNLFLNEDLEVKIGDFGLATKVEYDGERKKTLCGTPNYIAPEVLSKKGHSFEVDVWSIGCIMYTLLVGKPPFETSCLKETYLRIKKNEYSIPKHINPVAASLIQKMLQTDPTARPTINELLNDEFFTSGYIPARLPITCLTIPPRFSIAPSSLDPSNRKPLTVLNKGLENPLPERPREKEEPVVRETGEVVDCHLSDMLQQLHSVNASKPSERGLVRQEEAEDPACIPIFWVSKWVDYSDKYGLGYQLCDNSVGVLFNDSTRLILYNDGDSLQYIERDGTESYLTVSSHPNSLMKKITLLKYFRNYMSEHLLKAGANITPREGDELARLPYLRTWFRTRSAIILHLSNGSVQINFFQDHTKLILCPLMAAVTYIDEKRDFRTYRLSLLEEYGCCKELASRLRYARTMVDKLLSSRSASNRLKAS

SMILES	residual activity (AMPK) [%]	residual activity (PHK) [%]	IC50 (recombinant human MAP4K4; [1]) [nM]	remaining activity at 1 µM (GSK3b) [%]	remaining activity at 1 µM (ROCK 2) [%]	remaining activity at 1 µM (MPSK1) [%]	remaining activity at 1 µM (PLK1) [%]	residual activity (PINK) [%]	IC50 (recombinant human MAP4K4; [2]) [nM]	remaining activity at 1 µM (MAP4K5) [%]	remaining activity at 1 µM (ULK2) [%]	remaining activity at 1 µM (MINK1) [%]	remaining activity at 1 µM (Src) [%]	remaining activity at 1 µM (ERK5) [%]	remaining activity at 1 µM (MARK1) [%]	remaining activity at 1 µM (DYRK1A) [%]	remaining activity at 1 µM (TGFBR1) [%]	remaining activity at 1 µM (LCK) [%]	also measured
O=C1Cc2c([nH]c3ccc(Br)cc23)-c2ccccc2N1 [Kenpaullone]	64	20	30	6	62	74	99												
COCCOc1ccc(-c2cn(-c3ccccc3)c3nc[nH]c(=O)c23)cc1 [DMX-5804, 5-[4-(2-methoxy-ethoxy)-phenyl]-7-phenyl-3,7-dihydro-pyrrolo[2,3-d]pyrimidin-4-one]	87	102		102	104	103	118	108	2.82	44	89	2	92	115	81	110	95	109	fold greater potency compared with F1386-0303 (recombinant human MAP4K4): 10 fold
O=C1Nc2ccc(I)cc2/C1=C/c1cc(Br)c(O)c(Br)c1 [GW5074]	42	26	30	42	56	38	81											58	
Nc1ncc(C(=O)NC2CN(C(=O)C3CC3)C2)c2ccc(-c3cccc(F)c3)nc12 [GNE-495]	81	96						104											residual activity (MAP4K5; 1 μM): 45%; residual activity (ULK2; 1 μM): 100%; residual activity (MINK1; 1 μM): 2%; residual activity (Src; 1 μM): 122%; residual activity (ERK5; 1 μM): 96%; residual activity (MARK1; 1 μM): 57%; residual activity (DYRK1A; 1 μM): 55%; residual activity (TGFBR1; 1 μM): 94%; residual activity (GSK3b; 1 μM): 69%; residual activity (LCK; 1 μM): 104%; residual activity (ROCK 2; 1 μM): 82%; residual activity (MPSK1; 1 μM): 100%; residual activity (PLK1; 1 μM): 84%
Oc1ncnc2c1c(-c1ccccc1)cn2-c1ccccc1 [F1386-0303, 5,7-diphenyl-7H-pyrrolo[2,3-d]pyrimidin-4-ol]	114	106	34	127	132	117	100	104	34.7	82	86	11	118	93	87	108	141	112	
